Measurements taken from paper PMC3839082 (Proteins, 2011).

Target: hCINAP (Homo sapiens, UniProt Q9Y3D8)
Assay: coupled PK/LDH adenylate kinase assay
Format: biochemical

hCINAP, sequence (Q9Y3D8 whole entry): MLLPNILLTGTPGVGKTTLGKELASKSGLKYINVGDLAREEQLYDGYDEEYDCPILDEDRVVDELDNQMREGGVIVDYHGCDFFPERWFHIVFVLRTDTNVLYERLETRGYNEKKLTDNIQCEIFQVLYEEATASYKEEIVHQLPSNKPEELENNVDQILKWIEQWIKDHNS

IC50: 27 ± 2.93 nM
Structure (SMILES): Nc1ncnc2c1ncn2[C@@H]1O[C@H](COP(=O)(O)OP(=O)(O)OP(=O)(O)OP(=O)(O)OP(=O)(O)OC[C@H]2O[C@@H](n3cnc4c(N)ncnc43)[C@H](O)[C@@H]2O)[C@@H](O)[C@H]1O [AP5A]
